We go through one compound from PMC9176790 (PLoS Pathogens, 2022).

This experiment deals with RaaR (RSp0912) (Ralstonia pseudosolanacearum, UniProt Q8XRE2). The experiment is described as follows: biochemical.
Sequence of RaaR (RSp0912) (Q8XRE2 1-313 limits assumed): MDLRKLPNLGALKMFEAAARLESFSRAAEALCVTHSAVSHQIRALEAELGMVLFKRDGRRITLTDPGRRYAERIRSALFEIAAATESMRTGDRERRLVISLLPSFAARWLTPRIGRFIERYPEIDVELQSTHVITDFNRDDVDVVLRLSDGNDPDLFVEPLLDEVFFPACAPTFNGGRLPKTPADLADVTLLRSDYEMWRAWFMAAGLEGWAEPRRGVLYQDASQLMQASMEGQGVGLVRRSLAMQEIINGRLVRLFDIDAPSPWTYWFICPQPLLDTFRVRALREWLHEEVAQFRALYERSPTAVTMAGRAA

Take `Nc1ccccc1C(=O)O` [anthranilic acid]: the Kd is 3.63 µM.
